Source: publication PMC2410175, “A phase I and pharmacological study of the matrix metalloproteinase inhibitor BB-3644 in patients with solid tumours” (British Journal of Cancer, 2004)
Read-outs that look alike come from different tables or passages of the source.

Key:
[1] = tested on: HODP.IP rat mammary carcinoma cells; set-up: method as in British Biotech, unpublished data; settings: lung colonisation model, ref British Biotech, unpublished data; cited from earlier work
[2] = molecular target: gelatinase A; settings: background data, no reference given; read-out: IC50 against gelatinase A; cited from earlier work
[3] = cited from earlier work
[4] = tested on: B16-BL6 murine melanoma; set-up: method as in British Biotech, unpublished data; settings: B16-BL6 murine melanoma model; ref British Biotech, unpublished data; cited from earlier work
[5] = tested on: solid tumours; assay: Assessment of response in the phase I study; assay type: in vivo, patients
Protocol: Disease assessment was performed at baseline and repeated at 84 days or at withdrawal from the study. Patients were reviewed 4 weeks after withdrawal from the study.
Response was formally assessed radiologically after 3 months of therapy.

[6] = rhesus monkey, in vivo; cited from earlier work
[7] = molecular target: enkephalinase; settings: background data, no reference given; read-out: IC50 against enkephalinase; cited from earlier work
[8] = tested on: MDA-435 human breast carcinoma; set-up: method as in British Biotech, unpublished data; settings: MDA-435 human breast carcinoma model; ref British Biotech, unpublished data; cited from earlier work
[9] = tested on: processing of cell-bound TNF-α; settings: relative to marimastat; background data, no reference given; cited from earlier work
[10] = clinical; settings: human, in vivo; for half-life: T1/2; for AUC(0-t): AUC0–24
Protocol: Blood samples were collected in heparinised tubes before treatment, every 15 min for 2 h, at 2 h 30 min, 3, 4, 6, 8, 10 and 24 h on days 1 and 14 for the measurement of BB-3644. Blood samples were kept on ice. They were centrifuged at 4°C (1500 g for 10 min) within 30 min of collection. The supernatant plasma was collected and frozen at −70°C or cooler, until sent for analysis. Samples were analysed centrally in the Department of Drug Metabolism and Pharmacokinetics at British Biotech, UK.
Samples were analysed for BB-3644 content using a validated reverse-phase HPLC method with mass spectrometric detection. The limit of quantification was 1 ng ml^−1. The data were analysed using WinNonlin v2.1 Standard version (Pharsight Corporation, USA). PK parameters were derived from individual plasma concentration–time data, using noncompartmental analysis.
On the days of PK sampling, only the morning dose of BB-3644 was taken.

[11] = Phase I dose-escalation study: DLT, MTD and adverse events
Protocol: Patients over the age of 18 were required to be of ECOG performance status 0, 1 or 2, and to have a predicted survival of at least 3 months.
This was a phase I, open-label, dose-escalation study. BB-3644 was supplied as capsules comprising 5, 10, 20 and 40 mg BB-3644 (with maize starch, colloidal silica, magnesium stearate and lactose) by British Biotech Pharmaceuticals Ltd, UK. BB-3644 was administered orally twice daily for 84 days to cohorts of patients at doses 5, 10, 20 and 30 mg. […] Dose-limiting toxicity was defined as ‘an adverse reaction likely to be caused by the study drug and unlikely to be attributed to concurrent disease or other drugs or chemicals’. Essentially, any toxicity graded by CTC criteria as at least grade II was considered to be a DLT, as this could preclude chronic oral administration of a drug. If one patient experienced DLT, the cohort size was increased to six patients for that dose level. Further dose escalation was performed, provided that no more than […] patients experienced DLT by day 28. Nine patients were to be treated at the highest dose level. Patients experiencing DLT were eligible to continue treatment at a reduced dose following resolution of toxicity.
Physical examination, chest radiograph, haematology and serum chemistry were checked at baseline, every 4 weeks and at study termination. […] Patients were also reviewed by an opthalmologist at these times, to check the visual acuity, visual fields, and examine the whole eye and the fundi.

[12] = molecular target: collagenase-3; settings: background data, no reference given; read-out: IC50 against collagenase-3; cited from earlier work
[13] = set-up: method as in British Biotech, unpublished data; settings: marmosets; ref British Biotech, unpublished data; cited from earlier work
[14] = ref Wojtowicz-Praga et al, 1998, cited from earlier work
[15] = of the 13 patients that completed 12 weeks of therapy

## CO[C@H](C(=O)NO)[C@@H](CC(C)C)C(=O)N[C@H](C(=O)Nc1ccccn1)C(C)(C)C [BB-3644]
[1]
  tendinitis of the hind limbs: did not cause tendinitis of the hind limbs
[2]
  IC50: 80 nM
[3]; dog, in vivo
  toxicity at higher doses: Encephalopathy
[3]; dogs, ref British Biotech, unpublished data
  ocular changes: conjunctival hyperaemia, chemosis, corneal stromal limbal vascularisation and diffuse corneal haze and flocculation
[4]
  activity in inhibiting tumour growth: activity in inhibiting tumour growth
[5]; 22 patients, 5 to 30 mg bd
  therapeutic activity, overall conclusion: no evidence of beneficial therapeutic activity
[5]; [15]
  patients with progressive disease radiologically: 11
  patients with stable disease radiologically: two
[6]
  principal toxicity: cell debris in the gall bladder, with mucosal erosions and epithelial hyperplasia
[7]
  IC50: 40 nM
[8]
  activity in inhibiting tumour growth: activity in inhibiting tumour growth
[9]
  fold more active than marimastat in inhibiting the processing of cell-bound TNF-α: > 10 fold
[10]
  time to mean maximal concentration, range over dose levels: 30 to 90 min
[10]; 5 mg
  T1/2: 4 h
  Tmax: 1 h
  half-life: 2 h
[10]; 5 mg, Tmax
  Tmax: 0.75 h
[10]; 10 mg
  Cmax: 179 ng/mL
  T1/2: 2.5 h
  Tmax: 1 h
  half-life: 1.5 h
[10]; 10 mg, Cmax
  Cmax: 114 ng/mL
[10]; 10 mg, Tmax
  Tmax: 0.5 h
[10]; 20 mg
  AUC0–24: 1248 ng·h/mL
  Cmax: 282 ng/mL
  T1/2: 3 h
  Tmax: 0.75 h
  AUC(0-t): 781 ng·h/mL
  half-life: 1.5 h
[10]; 20 mg, Cmax
  Cmax: 232 ng/mL
[10]; 20 mg, Tmax
  Tmax: 0.5 h
[10]; 30 mg
  AUC0–24: 4401 ng·h/mL
  Cmax: 536 ng/mL
  Tmax: 1.75 h
  AUC(0-t): 2520 ng·h/mL
  half-life: 6 h
[10]; 30 mg, Cmax
  Cmax: 315 ng/mL
[10]; 30 mg, Tmax
  Tmax: 1.5 h
[11]; 28 days of oral treatment
  maximum tolerated dose (MTD): 20 mg bd
[11]; chronic oral dosing (>28 days, up to 84 days)
  maximum tolerated dose (MTD): 5 mg bd
[11]; human, in vivo, 84 days
  patients with musculoskeletal DLTs (number): 14
  patients with musculoskeletal DLTs (share): 64%
[11]; in vivo
  SAE considered possibly related to the study drug: thromboembolic episodes
  ophthalmological or gall bladder-related toxicity: no significant opthalmological or gall bladder-related toxicity
  patients who developed phlebitis: Two
  patients with dose-limiting malaise (NCI CTC toxicity >grade 1): Two
[11]; in vivo, po
  dose-limiting toxicity (DLT), nature: musculoskeletal pain
[12]
  IC50: 3 nM
[13]
  joint toxicity: induced inflammation of joint ligaments and tendons
  principal toxicity: cell debris in the gall bladder, with mucosal erosions and epithelial hyperplasia

## CNC(=O)[C@@H](NC(=O)[C@H](CC(C)C)[C@H](O)C(=O)NO)C(C)(C)C [marimastat]
[14]; clinical testing of marimastat, Tierney et al, 1999, Evans et al, 2001
  treatment-limiting toxicities: Musculoskeletal pain and inflammation
[14]; phase I studies of marimastat
  AUC achieved at the MTD: 2623 ng·h/mL
